# Experimental data reported in patent publication EP3807270B1, “NOVEL HETEROARYL HETEROCYCLYL COMPOUNDS FOR THE TREATMENT OF AUTOIMMUNE DISEASE” (F. Hoffmann-La Roche AG, priority 2018, dated 2019).
# Target: T1, human TLR8 (Homo sapiens, UniProt Q9NR97)
# T1 construct: host or cells: HEK293 (HEK-Blue)
# T1 sequence (Q9NR97 27-1041): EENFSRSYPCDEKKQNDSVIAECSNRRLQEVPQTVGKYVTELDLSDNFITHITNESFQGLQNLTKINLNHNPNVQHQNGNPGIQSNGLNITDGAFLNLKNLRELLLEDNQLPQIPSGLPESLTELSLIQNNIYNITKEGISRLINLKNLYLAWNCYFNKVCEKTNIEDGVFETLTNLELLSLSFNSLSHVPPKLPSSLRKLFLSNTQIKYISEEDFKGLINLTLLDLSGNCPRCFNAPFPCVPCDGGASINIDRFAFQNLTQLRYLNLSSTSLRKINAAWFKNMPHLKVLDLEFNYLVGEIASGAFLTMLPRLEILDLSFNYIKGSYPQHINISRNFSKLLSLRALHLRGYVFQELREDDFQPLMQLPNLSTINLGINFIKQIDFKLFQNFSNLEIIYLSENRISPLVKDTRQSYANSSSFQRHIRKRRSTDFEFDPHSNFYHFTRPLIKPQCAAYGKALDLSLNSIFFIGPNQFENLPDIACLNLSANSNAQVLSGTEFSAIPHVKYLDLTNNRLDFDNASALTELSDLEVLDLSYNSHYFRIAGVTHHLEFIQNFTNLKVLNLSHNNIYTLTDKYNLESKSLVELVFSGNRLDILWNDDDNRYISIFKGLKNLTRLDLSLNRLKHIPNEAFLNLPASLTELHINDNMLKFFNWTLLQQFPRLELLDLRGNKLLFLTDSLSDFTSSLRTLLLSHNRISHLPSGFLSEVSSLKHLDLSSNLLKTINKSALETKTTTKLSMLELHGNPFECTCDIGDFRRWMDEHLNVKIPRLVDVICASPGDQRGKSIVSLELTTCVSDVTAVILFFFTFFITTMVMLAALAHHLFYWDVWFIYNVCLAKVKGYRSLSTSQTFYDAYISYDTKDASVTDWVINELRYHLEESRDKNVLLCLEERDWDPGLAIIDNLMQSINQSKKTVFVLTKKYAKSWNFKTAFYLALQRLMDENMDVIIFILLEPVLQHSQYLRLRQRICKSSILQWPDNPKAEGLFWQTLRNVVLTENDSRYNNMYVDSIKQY
# Assay: HEK293-Blue-hTLR-8 cells assay (SEAP reporter, R848 stimulation)
# Format: cell-based
# Details: HEK293-Blue-hTLR8 cells, R848, 20 hrs; read-out: HEK/hTLR8 IC50
# From the text: A stable HEK293-Blue-hTLR-8 cell line was purchased from InvivoGen (Cat.#: hkb-htlr8, San Diego, California, USA). These cells were originally designed for studying the stimulation of human TLR8 by monitoring the activation of NF-κB. A SEAP (secreted embryonic alkaline phosphatase) reporter gene was placed under the control of the IFN-β minimal promoter fused to five NF-κB and AP-1-binding sites. The SEAP was induced by activating NF-κB and AP-1 via stimulating HEK-Blue hTLR8 cells with TLR8 ligands. Therefore, the reporter expression was declined by TLR8 antagonist under the stimulation of a ligand, such as R848, for incubation of 20 hrs. The cell culture supernatant SEAP reporter activity was determined using QUANTI-Blue™ kit (Cat.#: rep-qb1, Invivogen, San Diego, Ca, USA) at a wavelength of 640 nm, a detection medium that turns purple or blue in the presence of alkaline phosphatase.
# HEK293-Blue-hTLR8 cells were incubated at a density of 250,000-450,000 cells/mL in a volume of 170 µL in a 96-well plate in Dulbecco's Modified Eagle's medium (DMEM) containing 4.5 g/L glucose, 50 U/mL penicillin, […], […], 2 mM L-glutamine, 10% (v/v) heat-inactivated fetal bovine serum with addition of 20 µL test compound in a serial dilution in the presence of final DMSO at 1% and 10 µL of 60uM R848 in above DMEM, perform incubation under 37 °C in a CO2 incubator for 20 hrs. Then 20 µL of the supernatant from each well was incubated with 180 µL Quanti-blue substrate solution at 37°C for 2 hrs and the absorbance was read at 620-655 nm using a spectrophotometer. The signaling pathway that TLR8 activation leads to downstream NF-κB activation has been widely accepted, and therefore similar reporter assay was modified for evaluating TLR8 antagonist.
row,Structure (SMILES),IC50 [nM]
1,"C[C@@H]1CN(c2ccc(C#N)c3ncccc23)C[C@H](CN2CCN(c3ncc4c(n3)CNC4)CC2)O1 [Example 11, 5-[(2S,6R)-2-[[4-(6,7-dihydro-5Hpyrrolo[3,4-d]pyrimidin-2-yl)piperazin-1-yl]methyl]-6-methyl-morpholin-4-yl]quinoline-8-carbonitrile]",8
2,"C[C@@H]1CN(c2ccc(C#N)c3ncccc23)C[C@H](CN2CCN(c3ncc4c(n3)CNCC4)CC2)O1 [Example 12, 5-[(2R,6S)-2-methyl-6-[[4-(5,6,7,8-tetrahydropyrido[3,4-d]pyrimidin-2-yl)piperazin-1-yl]methyl]morpholin-4-yl]quinoline-8-carbonitrile]",5
3,"C[C@@H]1CN(c2ccc(C#N)c3ncccc23)C[C@H](CN2CCN(c3ccc4c(c3)CNC4)C(CO)C2)O1 (stereo partly drawn) [Example 13, 5-[(2S,6R)-2-[[3-(hydroxymethyl)-4-isoindolin-5-yl-piperazin-1-yl]methyl]-6-methyl-morpholin-4-yl]quinoline-8-carbonitrile]",22
4,"C[C@@H]1CN(c2ccc(C#N)c3ncccc23)C[C@H](CN2CCN(c3ccc4c(n3)CCNC4)CC2)O1 [Example 14, 5-[(2R,6S)-2-methyl-6-[[4-(5,6,7,8-tetrahydro-1,6-naphthyridin-2-yl)piperazin-1-yl]methyl]morpholin-4-yl]quinoline-8-carbonitrile]",4
5,"C[C@@H]1CN(c2ccc(C#N)c3ncccc23)C[C@H](CN2CCN(c3ccc4c(c3)CNC4)CC2CO)O1 (stereo partly drawn) [Example 15, 5-[(2S,6R)-2-[[2-(hydroxymethyl)-4-isoindolin-5-yl-piperazin-1-yl]methyl]-6-methyl-morpholin-4-yl]quinoline-8-carbonitrile]",11
6,"C[C@@H]1CN(c2ccc(C#N)c3ncccc23)C[C@H](CN2CCN(c3ccc4c(c3)CN(CCO)C4)CC2)O1 [Example 16, 5-[(2S,6R)-2-[[4-[2-(2-hydroxyethyl)isoindolin-5-yl]piperazin-1-yl]methyl]-6-methyl-morpholin-4-yl]quinoline-8-carbonitrile]",10
7,"C[C@@H]1CN(c2ccc(C#N)c3ncccc23)C[C@H](CN2CCN(c3cnc4c(n3)CCNC4)CC2)O1 [Example 17, 5-[(2R,6S)-2-methyl-6-[[4-(5,6,7,8-tetrahydropyrido[3,4-b]pyrazin-2-yl)piperazin-1-yl]methyl]morpholin-4-yl]quinoline-8-carbonitrile]",4
8,"C[C@@H]1CN(c2ccc(C#N)c3ncccc23)C[C@H](CN2CCN(c3cc4c(cn3)CNC4)CC2)O1 [Example 18, 5-[(2S,6R)-2-[[4-(2,3-dihydro-1H-pyrrolo[3,4-c]pyridin-6-yl)piperazin-1-yl]methyl]-6-methyl-morpholin-4-yl] quinoline-8-carbonitrile]",9
9,"C[C@@H]1CN(c2ccc(C#N)c3ncccc23)C[C@H](CN2CCN(c3cc4c(cn3)CNCC4)CC2)O1 [Example 19, 5-[(2R,6S)-2-methyl-6-[[4-(5,6,7,8-tetrahydro-2,7-naphthyridin-3-yl)piperazin-1-yl]methyl]morpholin-4-yl]quinoline-8-carbonitrile]",4
10,"C[C@@H]1CN(c2ccc(C#N)c3ncccc23)C[C@H](CN2CCN(c3cc4c(cn3)CCNC4)CC2)O1 [Example 20, 5-[(2R,6S)-2-methyl-6-[[4-(5,6,7,8-tetrahydro-2,6-naphthyridin-3-yl)piperazin-1-yl]methyl]morpholin-4-yl]quinoline-8-carbonitrile]",6
11,"C[C@@H]1CN(c2ccc(C#N)c3ncccc23)C[C@H](CN2CCN(c3cnc4c(c3)CNCC4)CC2)O1 [Example 21, 5-[(2R,6S)-2-methyl-6-[[4-(5,6,7,8-tetrahydro-1,6-naphthyridin-3-yl)piperazin-1-yl]methyl]morpholin-4-yl]quinoline-8-carbonitrile]",9
12,"C[C@@H]1CN(c2ccc(C#N)c3ncccc23)C[C@H](CN2CCN(c3ccc4c(c3)C(O)CNC4)CC2)O1 (stereo partly drawn) [Example 22, 5-[(2S,6R)-2-[[4-(4-hydroxy-1,2,3,4-tetrahydroisoquinolin-6-yl)piperazin-1-yl]methyl]-6-methyl-morpholin-4-yl]quinoline-8-carbonitrile]",19
13,"C[C@@H]1CN(c2ccc(C#N)c3ncccc23)C[C@H](CN2CCN(c3cnc4c(c3)CCNC4)CC2)O1 [Example 23, 5-[(2R,6S)-2-methyl-6-[[4-(5,6,7,8-tetrahydro-1,7-naphthyridin-3-yl)piperazin-1-yl]methyl]morpholin-4-yl]quinoline-8-carbonitrile]",11
14,"C[C@@H]1CN(c2ccc(C#N)c3ncccc23)C[C@H](CN2CCN(c3ccc4c(c3)CCNC4CO)CC2)O1 (stereo partly drawn) [Example 24, 5-[(2S,6R)-2-[[4-[1-(hydroxymethyl)-1,2,3,4-tetrahydroisoquinolin-6-yl]piperazin-1-yl]methyl]-6-methyl-morpholin-4-yl]quinoline-8-carbonitrile]",22
15,"C[C@@H]1CN(c2ccc(C#N)c3nccnc23)C[C@H](CN2CCN(c3cnc4c(c3)CNC4)CC2)O1 [Example 25, 8-[(2S,6R)-2-[[4-(6,7-dihydro-5H-pyrrolo[3,4-b]pyridin-3-yl)piperazin-1-yl]methyl]-6-methyl-morpholin-4-yl] quinoxaline-5-carbonitrile]",17
16,"C[C@@H]1CN(c2ccc(C#N)n3ncc(F)c23)C[C@H](CN2CCN(c3cnc4c(c3)CNC4)CC2)O1 [Example 26, 4-[(2S,6R)-2-[[4-(6,7-dihydro-5H-pyrrolo[3,4-b]pyridin-3-yl)piperazin-1-yl]methyl]-6-methyl-morpholin-4-yl]-3-fluoro-pyrazolo[1,5-a]pyridine-7-carbonitrile]",49
17,"CC1NCc2cc(N3CCN(C[C@H]4CN(c5ccc(C#N)c6ncccc56)C[C@@H](C)O4)CC3)ccc21 (stereo partly drawn) [Example 28, 5-[(2R,6S)-2-methyl-6-[[4-(1-methylisoindolin-5-yl)piperazin-1-yl]methyl]morpholin-4-yl]quinoline-8-carbonitrile]",13
18,"C[C@@H]1CN(c2ccc(C#N)c3ncccc23)C[C@H](CN2CCN(c3ncc4c(n3)CCNC4)CC2)O1 [Example 29, 5-[(2R,6S)-2-methyl-6-[[4-(5,6,7,8-tetrahydropyrido[4,3-d]pyrimidin-2-yl)piperazin-1-yl]methyl]morpholin-4-yl]quinoline-8-carbonitrile]",< 3
19,"C[C@@H]1CN(c2ccc(C#N)c3ncccc23)C[C@H](CN2CCN(c3ccc4c(n3)CNC4)CC2)O1 [Example 30, 5-[(2S,6R)-2-[[4-(6,7-dihydro-5H-pyrrolo[3,4-b]pyridin-2-yl)piperazin-1-yl]methyl]-6-methyl-morpholin-4-yl] quinoline-8-carbonitrile]",7
20,"C[C@@H]1CN(c2ccc(C#N)c3ncccc23)C[C@H](CN2CCN(c3nc4c(s3)CNCC4)CC2)O1 [Example 31, 5-[(2R,6S)-2-methyl-6-[[4-(4,5,6,7-tetrahydrothiazolo[5,4-c]pyridin-2-yl)piperazin-1-yl]methyl]morpholin-4-yl]quinoline-8-carbonitrile]",< 3
21,"C[C@@H]1CN(c2ccc(C#N)c3ncccc23)C[C@H](CN2CCC(Nc3ncc4c(n3)CNC4)C2)O1 (stereo partly drawn) [Example 32, 5-[(2S,6R)-2-[[3-(6,7-dihydro-5H-pyrrolo[3,4-d]pyrimidin-2-ylamino)pyrrolidin-1-yl]methyl]-6-methyl-morpholin-4-yl]quinoline-8-carbonitrile]",107
